{"source": "paper PMC10141580", "about": "“Cyclic Dichalcogenides Extend the Reach of Bioreductive Prodrugs to Harness Thiol/Disulfide Oxidoreductases: Applications to seco-Duocarmycins Targeting the Thioredoxin System” (ACS Central Science, 2023)", "test_system": "panel of 140 standard cancer cell lines", "test": "ProliFiler-140 cancer cell line screen (CellTiterGlo, 72 h)", "type": "cell-based", "protocol": "Incubations were performed for 72 h before automated viability readout with CellTiterGlo (Figure 8).\nEnd of Figure S11 (part 5 of 5): ProliFiler-140 cancer cell line screening for cytotoxicity of the prodrugs.\n8-data-point dose response curves from CellTiter-Glo® viability readout.\nProliFiler-140 cell line panel part V", "note": "“And” between values parts separate entries of the source, which are not always exact repeats. Equal entries are not always repeated. Where two headings read alike, the source gives them in different places."}
{"smiles": "COc1cc2cc(C(=O)N3C[C@@H](CCl)c4c3cc(OC(=O)N(CCC(=O)N3CCN(C)CC3)C3CCCCC3)c3ccccc43)[nH]c2c(OC)c1OC", "note": "[P-CC60-CBI-TMI]", "values": [{"measurement": "IC50", "setting": "786-O (Kidney), read-out: IC50 [M] (ProliFiler-140)", "result": "1.18e-07 M and 1.2e-07 M"}, {"measurement": "IC50", "setting": "786-O, read-out: IC50", "result": "1.2e-07", "unit": "M"}, {"measurement": "IC50", "setting": "A172 (Brain), read-out: IC50 [M] (ProliFiler-140)", "result": "5.74e-07 M and 5.7e-07 M"}, {"measurement": "IC50", "setting": "A375 (Skin), read-out: IC50 [M] (ProliFiler-140)", "result": "1.64e-07 M and 1.6e-07 M"}, {"measurement": "IC50", "setting": "A427 (Lung), read-out: IC50 [M] (ProliFiler-140)", "result": "8.2e-07 M and 8.23e-07 M"}, {"measurement": "IC50", "setting": "A431 (Skin), read-out: IC50 [M] (ProliFiler-140)", "result": "2.62e-07 M and 2.6e-07 M"}, {"measurement": "IC50", "setting": "A498 (Kidney), read-out: IC50 [M] (ProliFiler-140)", "result": "3e-07", "unit": "M"}, {"measurement": "IC50", "setting": "A498, read-out: IC50", "result": "3e-07", "unit": "M"}, {"measurement": "IC50", "setting": "A549 (Lung), read-out: IC50 [M] (ProliFiler-140)", "result": "7.7e-07", "unit": "M"}, {"measurement": "IC50", "setting": "A549, read-out: IC50", "result": "7.7e-07", "unit": "M"}, {"measurement": "IC50", "setting": "A2058 (Skin), read-out: IC50 [M] (ProliFiler-140)", "result": "1e-07 M and 1.02e-07 M"}, {"measurement": "IC50", "setting": "A2780 (Ovary), read-out: IC50 [M] (ProliFiler-140)", "result": "8.9e-08 M and 8.89e-08 M"}, {"measurement": "IC50", "setting": "AsPC-1 (Pancreas), read-out: IC50 [M] (ProliFiler-140)", "result": "2.1e-06 M and 2.15e-06 M"}, {"measurement": "IC50", "setting": "BEN (Lung), read-out: IC50 [M] (ProliFiler-140)", "result": "1.4e-06 M and 1.42e-06 M"}, {"measurement": "IC50", "setting": "BT-20 (Breast), read-out: IC50 [M] (ProliFiler-140)", "result": "1.1e-06 M and 1.11e-06 M"}, {"measurement": "IC50", "setting": "BxPC-3 (Pancreas), read-out: IC50 [M] (ProliFiler-140)", "result": "6.62e-07 M and 6.6e-07 M"}, {"measurement": "IC50", "setting": "CAKI-1, read-out: IC50", "result": "3.3e-07", "unit": "M"}, {"measurement": "IC50", "setting": "COR-L279 (Lung), read-out: IC50 [M] (ProliFiler-140)", "result": "7.4e-08 M and 7.36e-08 M"}, {"measurement": "IC50", "setting": "COV434 (Ovary), read-out: IC50 [M] (ProliFiler-140)", "result": "1.1e-07 M and 1.15e-07 M"}, {"measurement": "IC50", "setting": "Caki-1 (Kidney), read-out: IC50 [M] (ProliFiler-140)", "result": "3.29e-07 M and 3.3e-07 M"}, {"measurement": "IC50", "setting": "Caki-2 (Kidney), read-out: IC50 [M] (ProliFiler-140)", "result": "1.51e-06 M and 1.5e-06 M"}, {"measurement": "IC50", "setting": "Calu-6 (Lung), read-out: IC50 [M] (ProliFiler-140)", "result": "3.42e-07 M and 3.4e-07 M"}, {"measurement": "IC50", "setting": "Colo 205 (Colon), read-out: IC50 [M] (ProliFiler-140)", "result": "7.6e-07 M and 7.61e-07 M"}, {"measurement": "IC50", "setting": "DLD-1 (Colon), read-out: IC50 [M] (ProliFiler-140)", "result": "7.91e-07 M and 7.9e-07 M"}, {"measurement": "IC50", "setting": "DU-145 (Prostate), read-out: IC50 [M] (ProliFiler-140)", "result": "1.8e-07 M and 1.83e-07 M"}, {"measurement": "IC50", "setting": "DV90 (Lung), read-out: IC50 [M] (ProliFiler-140)", "result": "9e-08 M and 9.04e-08 M"}, {"measurement": "IC50", "setting": "Detroit562 (Head/Neck), read-out: IC50 [M] (ProliFiler-140)", "result": "3.15e-07 M and 3.2e-07 M"}, {"measurement": "IC50", "setting": "EFM-19 (Breast), read-out: IC50 [M] (ProliFiler-140)", "result": "9.6e-07 M and 9.62e-07 M"}, {"measurement": "IC50", "setting": "EFM-192A (Breast), read-out: IC50 [M] (ProliFiler-140)", "result": "1.8e-06 M and 1.78e-06 M"}, {"measurement": "IC50", "setting": "EFO-27 (Ovary), read-out: IC50 [M] (ProliFiler-140)", "result": "9e-07", "unit": "M"}, {"measurement": "IC50", "setting": "EPLC-272H (Lung), read-out: IC50 [M] (ProliFiler-140)", "result": "5.08e-07 M and 5.1e-07 M"}, {"measurement": "IC50", "setting": "H4 (Brain), read-out: IC50 [M] (ProliFiler-140)", "result": "8.08e-08 M and 8.1e-08 M"}, {"measurement": "IC50", "setting": "H460 (Lung), read-out: IC50 [M] (ProliFiler-140)", "result": "5.1e-08 M and 5.12e-08 M"}, {"measurement": "IC50", "setting": "H1299 (Lung), read-out: IC50 [M] (ProliFiler-140)", "result": "7.27e-07 M and 7.3e-07 M"}, {"measurement": "IC50", "setting": "H2228 (Lung), read-out: IC50 [M] (ProliFiler-140)", "result": "3.99e-07 M and 4e-07 M"}, {"measurement": "IC50", "setting": "HCC38 (Breast), read-out: IC50 [M] (ProliFiler-140)", "result": "1.65e-07 M and 1.7e-07 M"}, {"measurement": "IC50", "setting": "HCC202 (Breast), read-out: IC50 [M] (ProliFiler-140)", "result": "9e-07 M and 8.97e-07 M"}, {"measurement": "IC50", "setting": "HCC827 (Lung), read-out: IC50 [M] (ProliFiler-140)", "result": "1.4e-06 M and 1.38e-06 M"}, {"measurement": "IC50", "setting": "HCC 1569 (Breast), read-out: IC50 [M] (ProliFiler-140)", "result": "9.9e-07 M and 9.93e-07 M"}, {"measurement": "IC50", "setting": "HCT116 (Colon), read-out: IC50 [M] (ProliFiler-140)", "result": "4.41e-07 M and 4.4e-07 M"}, {"measurement": "IC50", "setting": "HCT116, read-out: IC50", "result": "4.4e-07", "unit": "M"}, {"measurement": "IC50", "setting": "HCT-15 (Colon), read-out: IC50 [M] (ProliFiler-140)", "result": "5.46e-07 M and 5.5e-07 M"}, {"measurement": "IC50", "setting": "HCT-15, read-out: IC50", "result": "5.5e-07", "unit": "M"}, {"measurement": "IC50", "setting": "HEC-1-A (Endometrium), read-out: IC50 [M] (ProliFiler-140)", "result": "1.8e-06 M and 1.84e-06 M"}, {"measurement": "IC50", "setting": "HEC-1-B (Endometrium), read-out: IC50 [M] (ProliFiler-140)", "result": "3.3e-06 M and 3.29e-06 M"}, {"measurement": "IC50", "setting": "HL-60 (Blood), read-out: IC50 [M] (ProliFiler-140)", "result": "1e-07 M and 1.01e-07 M"}, {"measurement": "IC50", "setting": "HL-60, read-out: IC50", "result": "1e-07", "unit": "M"}, {"measurement": "IC50", "setting": "HT-29 (Colon), read-out: IC50 [M] (ProliFiler-140)", "result": "1e-06 M and 9.98e-07 M"}, {"measurement": "IC50", "setting": "HT-29, read-out: IC50", "result": "1e-06", "unit": "M"}, {"measurement": "IC50", "setting": "HT-1080 (Fibrosarcoma), read-out: IC50 [M] (ProliFiler-140)", "result": "3.2e-07", "unit": "M"}, {"measurement": "IC50", "setting": "Hep3B2.1-7 (Liver), read-out: IC50 [M] (ProliFiler-140)", "result": "1.3e-06 M and 1.34e-06 M"}, {"measurement": "IC50", "setting": "Hs 746T (Stomach), read-out: IC50 [M] (ProliFiler-140)", "result": "9.9e-07 M and 9.89e-07 M"}, {"measurement": "IC50", "setting": "HuH7 (Liver), read-out: IC50 [M] (ProliFiler-140)", "result": "6.47e-07 M and 6.5e-07 M"}, {"measurement": "IC50", "setting": "Hutu 80 (Duodenum), read-out: IC50 [M] (ProliFiler-140)", "result": "5.37e-08 M and 5.4e-08 M"}, {"measurement": "IC50", "setting": "Ishikawa (Endometrium), read-out: IC50 [M] (ProliFiler-140)", "result": "2.6e-08 M and 2.61e-08 M"}, {"measurement": "IC50", "setting": "J82 (Bladder), read-out: IC50 [M] (ProliFiler-140)", "result": "7.2e-07", "unit": "M"}, {"measurement": "IC50", "setting": "JIMT-1 (Breast), read-out: IC50 [M] (ProliFiler-140)", "result": "1.6e-06", "unit": "M"}, {"measurement": "IC50", "setting": "JVM-3 (Blood), read-out: IC50 [M] (ProliFiler-140)", "result": "3.14e-08 M and 3.1e-08 M"}, {"measurement": "IC50", "setting": "Jurkat (Blood), read-out: IC50 [M] (ProliFiler-140)", "result": "9.37e-08 M and 9.4e-08 M"}, {"measurement": "IC50", "setting": "K562 (Blood), read-out: IC50 [M] (ProliFiler-140)", "result": "1.1e-06 M and 1.11e-06 M"}, {"measurement": "IC50", "setting": "KARPAS 299 (Blood), read-out: IC50 [M] (ProliFiler-140)", "result": "7.07e-07 M and 7.1e-07 M"}, {"measurement": "IC50", "setting": "KG-1 (Blood), read-out: IC50 [M] (ProliFiler-140)", "result": "6.22e-07 M and 6.2e-07 M"}, {"measurement": "IC50", "setting": "KG-1 a (Blood), read-out: IC50 [M] (ProliFiler-140)", "result": "5.5e-07", "unit": "M"}, {"measurement": "IC50", "setting": "KMS-12-BM (Blood), read-out: IC50 [M] (ProliFiler-140)", "result": "3.43e-07 M and 3.4e-07 M"}, {"measurement": "IC50", "setting": "Kato III (Stomach), read-out: IC50 [M] (ProliFiler-140)", "result": "1.6e-06 M and 1.62e-06 M"}, {"measurement": "IC50", "setting": "LN229 (Brain), read-out: IC50 [M] (ProliFiler-140)", "result": "7.23e-07 M and 7.2e-07 M"}, {"measurement": "IC50", "setting": "LOU-NH91 (Lung), read-out: IC50 [M] (ProliFiler-140)", "result": "3.1e-07 M and 3.07e-07 M"}, {"measurement": "IC50", "setting": "LOVO (Colon), read-out: IC50 [M] (ProliFiler-140)", "result": "2.22e-07 M and 2.2e-07 M"}, {"measurement": "IC50", "setting": "LP-1 (Blood), read-out: IC50 [M] (ProliFiler-140)", "result": "7.2e-07 M and 7.16e-07 M"}, {"measurement": "IC50", "setting": "LnCap (Prostate), read-out: IC50 [M] (ProliFiler-140)", "result": "8.9e-07 M and 8.94e-07 M"}, {"measurement": "IC50", "setting": "M07e (Blood), read-out: IC50 [M] (ProliFiler-140)", "result": "1.38e-07 M and 1.4e-07 M"}, {"measurement": "IC50", "setting": "MCAS (Ovary), read-out: IC50 [M] (ProliFiler-140)", "result": "8.2e-07 M and 8.18e-07 M"}, {"measurement": "IC50", "setting": "MCF-7 (Breast), read-out: IC50 [M] (ProliFiler-140)", "result": "2.1e-07 M and 2.15e-07 M"}, {"measurement": "IC50", "setting": "MDA MB 231 (Breast), read-out: IC50 [M] (ProliFiler-140)", "result": "7.4e-07", "unit": "M"}, {"measurement": "IC50", "setting": "MDA MB 435 (Skin), read-out: IC50 [M] (ProliFiler-140)", "result": "1.1e-06 M and 1.08e-06 M"}, {"measurement": "IC50", "setting": "MDA-MB-468 (Breast), read-out: IC50 [M] (ProliFiler-140)", "result": "1.5e-07 M and 1.48e-07 M"}]}
